{
  "source": "patent US8748407B2",
  "about": "(The Research Foundation for the State University of New York, priority 2010, dated 2014)",
  "key": {"[1]": {"target": "T1, GluA1 (Rattus norvegicus, UniProt P19490)", "T1 construct": "expressed in transfected cells; host or cells: HEK-293S", "T1 sequence (P19490 19-907)": "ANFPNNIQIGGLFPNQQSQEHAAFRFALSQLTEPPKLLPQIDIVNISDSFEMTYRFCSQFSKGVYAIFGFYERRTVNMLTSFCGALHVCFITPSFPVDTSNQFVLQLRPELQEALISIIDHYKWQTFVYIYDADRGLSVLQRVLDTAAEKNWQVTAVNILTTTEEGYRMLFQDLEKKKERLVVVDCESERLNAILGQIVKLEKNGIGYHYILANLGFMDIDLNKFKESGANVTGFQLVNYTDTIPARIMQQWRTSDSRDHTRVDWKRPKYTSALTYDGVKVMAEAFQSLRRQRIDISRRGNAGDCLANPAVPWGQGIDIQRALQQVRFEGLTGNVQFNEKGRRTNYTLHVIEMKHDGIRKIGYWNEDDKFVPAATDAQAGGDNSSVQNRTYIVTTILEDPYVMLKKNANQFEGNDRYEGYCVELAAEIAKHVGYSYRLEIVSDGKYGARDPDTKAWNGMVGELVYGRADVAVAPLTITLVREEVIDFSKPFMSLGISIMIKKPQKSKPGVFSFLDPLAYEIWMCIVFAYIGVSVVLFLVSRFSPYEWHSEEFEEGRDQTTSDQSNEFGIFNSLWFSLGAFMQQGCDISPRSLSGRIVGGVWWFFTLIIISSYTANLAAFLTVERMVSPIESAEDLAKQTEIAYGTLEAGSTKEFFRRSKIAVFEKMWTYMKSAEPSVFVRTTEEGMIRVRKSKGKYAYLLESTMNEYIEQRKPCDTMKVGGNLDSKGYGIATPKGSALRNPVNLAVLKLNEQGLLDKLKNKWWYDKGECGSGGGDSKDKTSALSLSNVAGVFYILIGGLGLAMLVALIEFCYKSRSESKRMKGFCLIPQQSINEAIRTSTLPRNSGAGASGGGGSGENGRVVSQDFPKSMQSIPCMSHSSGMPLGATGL", "test": "Whole-cell current recording, GluA1", "assay_type": "cell-based", "source_text": "(§1) The original cDNAs in pBlueScript encoding rat GluA1, 2 and 3 AMPA receptors and GluK2 kainate receptor were kindly provided by Steve Heinemann. The GluA4 DNA plasmid was kindly provided by Peter Seeburg. The GluK1 plasmid was kindly provided by Geoffrey Swanson. The cDNAs of all three NMDA receptor subunits were gifts from John Woodward. All DNA plasmids were propagated using Escherichia coli host (DH5α) and purified using QIAGEN DNA purification kits.\n(§2) All of the receptors were transiently expressed in HEK-293S cell. HEK-293S cells were maintained in Dulbecco's modified Eagle's medium (DMEM) supplemented with 10% fetal bovine serum and 1% penicillin in a 37° C., 5% CO2, humidified incubator. Receptors were transiently transfected by using calcium phosphate or lipofectamine 2000 (Invitrogen). The DNA plasmids encoding green fluorescent protein (GFP) and T-antigen (TAg) were cotransfected in HEK-293 S cells. […]\n(§3) The procedure for whole-cell current recording to assay the inhibitory property of an RNA aptamer is known to those of skill in the art and has been previously described^7. […] The whole-cell current was recorded using an Axopatch-200B amplifier at a cutoff frequency of 2-20 kHz by a built-in, eight-pole Bessel filter and digitized at 5-50 kHz sampling frequency using a Digidata 1322A from Axon Instruments (Molecular Devices, Sunnyvale, Calif.). […]"}, "[2]": {"target": "T2, GluA4 (Rattus norvegicus, UniProt P19493)", "T2 construct": "expressed in transfected cells; host or cells: HEK-293S", "T2 sequence (P19493 21-902)": "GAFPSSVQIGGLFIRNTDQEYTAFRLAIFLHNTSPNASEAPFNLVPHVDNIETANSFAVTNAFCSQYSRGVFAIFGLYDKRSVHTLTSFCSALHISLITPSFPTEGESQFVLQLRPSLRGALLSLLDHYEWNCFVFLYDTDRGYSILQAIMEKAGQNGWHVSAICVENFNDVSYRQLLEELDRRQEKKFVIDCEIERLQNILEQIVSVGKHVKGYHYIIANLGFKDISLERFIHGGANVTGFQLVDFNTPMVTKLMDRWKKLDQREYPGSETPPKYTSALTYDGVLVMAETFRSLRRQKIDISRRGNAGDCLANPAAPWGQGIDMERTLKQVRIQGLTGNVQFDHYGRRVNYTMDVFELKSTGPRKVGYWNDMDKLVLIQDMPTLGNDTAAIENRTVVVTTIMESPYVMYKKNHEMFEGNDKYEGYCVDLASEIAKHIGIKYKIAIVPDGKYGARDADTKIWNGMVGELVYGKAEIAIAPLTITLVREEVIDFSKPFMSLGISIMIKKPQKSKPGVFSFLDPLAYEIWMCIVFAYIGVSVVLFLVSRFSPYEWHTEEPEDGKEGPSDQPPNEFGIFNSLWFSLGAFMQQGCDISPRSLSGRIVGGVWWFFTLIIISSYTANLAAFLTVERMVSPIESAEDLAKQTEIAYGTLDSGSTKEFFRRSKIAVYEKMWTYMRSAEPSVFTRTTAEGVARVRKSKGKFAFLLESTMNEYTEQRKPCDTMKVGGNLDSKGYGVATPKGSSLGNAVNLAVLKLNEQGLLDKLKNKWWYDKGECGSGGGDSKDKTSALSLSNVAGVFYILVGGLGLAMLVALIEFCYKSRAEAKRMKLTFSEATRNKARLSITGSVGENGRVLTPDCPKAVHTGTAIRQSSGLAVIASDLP", "test": "Whole-cell current recording, GluA4", "assay_type": "cell-based", "source_text": "as §1\nAll of the receptors were transiently expressed in HEK-293S cell. HEK-293S cells were maintained in Dulbecco's modified Eagle's medium (DMEM) supplemented with 10% fetal bovine serum and 1% penicillin in a 37° C., 5% CO2, humidified incubator. Receptors were transiently transfected by using calcium phosphate or lipofectamine 2000 (Invitrogen). The DNA plasmids encoding green fluorescent protein (GFP) and T-antigen (TAg) were cotransfected in HEK-293 S cells. GFP was used as a transfection marker for cell recording, and TAg was cotransfected to potentiate the receptor expression at the single-cell level^6. Transfected cells were allowed to grow for 48 hour before they were used for recording.\nThe procedure for whole-cell current recording to assay the inhibitory property of an RNA aptamer is known to those of skill in the art and has been previously described^7. […] The extracellular buffer composition is described above (see “Receptor Preparation”). For recording of the NMDA channels, the intracellualr solution contained (in mM) 140 CsCl, 1 MgCl2, 0.1 EGTA, and 10 HEPES (pH 7.2 adjusted by […]), while the extracellular solution contained (in mM) 135 NaCl, 5.4 KCl, 1.8 CaCl2, 10 glucose and 5 HEPES (pH 7.2 adjusted by NaOH). In the extracellular buffer, 2 μM of glycine was added (glycine was the co-agonist of NMDA receptor)^2. All reagents including aptamer were dissolved in the corresponding extracellular buffer and used. […] The whole-cell current was recorded using an Axopatch-200B amplifier at a cutoff frequency of 2-20 kHz by a built-in, eight-pole Bessel filter and digitized at 5-50 kHz sampling frequency using a Digidata 1322A from Axon Instruments (Molecular Devices, Sunnyvale, Calif.). The pClamp 8 software (Molecular Devices) was used for data acquisition. All whole-cell recordings were at −60 mV and 22° C."}, "[3]": {"system": "GluK1", "test": "Whole-cell current recording, kainate receptor GluK1", "assay_type": "cell-based", "source_text": "as §1, §2, §3"}, "[4]": {"target": "T3, GluK2 (Rattus norvegicus, UniProt P42260)", "T3 construct": "expressed in transfected cells; host or cells: HEK-293S", "T3 sequence (P42260 32-908)": "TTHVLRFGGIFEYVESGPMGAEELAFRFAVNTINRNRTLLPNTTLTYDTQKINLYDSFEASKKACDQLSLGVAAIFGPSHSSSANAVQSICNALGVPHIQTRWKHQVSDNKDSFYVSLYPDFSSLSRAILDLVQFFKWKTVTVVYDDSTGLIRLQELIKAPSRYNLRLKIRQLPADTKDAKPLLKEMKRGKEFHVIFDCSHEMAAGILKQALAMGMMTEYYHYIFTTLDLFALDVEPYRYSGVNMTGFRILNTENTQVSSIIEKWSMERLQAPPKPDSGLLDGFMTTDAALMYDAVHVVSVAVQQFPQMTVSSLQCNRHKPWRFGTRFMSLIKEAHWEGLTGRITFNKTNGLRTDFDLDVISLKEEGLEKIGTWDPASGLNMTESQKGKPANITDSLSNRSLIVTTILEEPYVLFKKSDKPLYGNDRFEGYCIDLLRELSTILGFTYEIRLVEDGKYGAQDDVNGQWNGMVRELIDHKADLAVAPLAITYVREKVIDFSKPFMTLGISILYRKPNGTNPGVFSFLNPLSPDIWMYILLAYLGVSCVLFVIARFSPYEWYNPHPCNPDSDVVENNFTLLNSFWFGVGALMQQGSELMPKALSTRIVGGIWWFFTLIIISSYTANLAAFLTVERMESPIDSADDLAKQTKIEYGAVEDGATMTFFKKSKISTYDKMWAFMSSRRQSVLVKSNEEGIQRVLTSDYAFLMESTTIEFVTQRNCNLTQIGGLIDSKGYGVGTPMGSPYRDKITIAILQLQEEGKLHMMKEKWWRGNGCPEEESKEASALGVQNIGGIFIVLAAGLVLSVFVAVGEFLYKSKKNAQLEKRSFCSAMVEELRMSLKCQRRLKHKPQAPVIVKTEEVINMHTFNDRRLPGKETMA", "test": "Whole-cell current recording, kainate receptor GluK2", "assay_type": "cell-based", "source_text": "as §1, §2, §3"}, "[5]": {"target": "T4, GluN1a/2A (Rattus norvegicus, UniProt P35439+Q00959)", "T4 construct": "expressed in transfected cells; host or cells: HEK-293S", "T4 sequence (Q00959 23-1464, other chains not shown)": "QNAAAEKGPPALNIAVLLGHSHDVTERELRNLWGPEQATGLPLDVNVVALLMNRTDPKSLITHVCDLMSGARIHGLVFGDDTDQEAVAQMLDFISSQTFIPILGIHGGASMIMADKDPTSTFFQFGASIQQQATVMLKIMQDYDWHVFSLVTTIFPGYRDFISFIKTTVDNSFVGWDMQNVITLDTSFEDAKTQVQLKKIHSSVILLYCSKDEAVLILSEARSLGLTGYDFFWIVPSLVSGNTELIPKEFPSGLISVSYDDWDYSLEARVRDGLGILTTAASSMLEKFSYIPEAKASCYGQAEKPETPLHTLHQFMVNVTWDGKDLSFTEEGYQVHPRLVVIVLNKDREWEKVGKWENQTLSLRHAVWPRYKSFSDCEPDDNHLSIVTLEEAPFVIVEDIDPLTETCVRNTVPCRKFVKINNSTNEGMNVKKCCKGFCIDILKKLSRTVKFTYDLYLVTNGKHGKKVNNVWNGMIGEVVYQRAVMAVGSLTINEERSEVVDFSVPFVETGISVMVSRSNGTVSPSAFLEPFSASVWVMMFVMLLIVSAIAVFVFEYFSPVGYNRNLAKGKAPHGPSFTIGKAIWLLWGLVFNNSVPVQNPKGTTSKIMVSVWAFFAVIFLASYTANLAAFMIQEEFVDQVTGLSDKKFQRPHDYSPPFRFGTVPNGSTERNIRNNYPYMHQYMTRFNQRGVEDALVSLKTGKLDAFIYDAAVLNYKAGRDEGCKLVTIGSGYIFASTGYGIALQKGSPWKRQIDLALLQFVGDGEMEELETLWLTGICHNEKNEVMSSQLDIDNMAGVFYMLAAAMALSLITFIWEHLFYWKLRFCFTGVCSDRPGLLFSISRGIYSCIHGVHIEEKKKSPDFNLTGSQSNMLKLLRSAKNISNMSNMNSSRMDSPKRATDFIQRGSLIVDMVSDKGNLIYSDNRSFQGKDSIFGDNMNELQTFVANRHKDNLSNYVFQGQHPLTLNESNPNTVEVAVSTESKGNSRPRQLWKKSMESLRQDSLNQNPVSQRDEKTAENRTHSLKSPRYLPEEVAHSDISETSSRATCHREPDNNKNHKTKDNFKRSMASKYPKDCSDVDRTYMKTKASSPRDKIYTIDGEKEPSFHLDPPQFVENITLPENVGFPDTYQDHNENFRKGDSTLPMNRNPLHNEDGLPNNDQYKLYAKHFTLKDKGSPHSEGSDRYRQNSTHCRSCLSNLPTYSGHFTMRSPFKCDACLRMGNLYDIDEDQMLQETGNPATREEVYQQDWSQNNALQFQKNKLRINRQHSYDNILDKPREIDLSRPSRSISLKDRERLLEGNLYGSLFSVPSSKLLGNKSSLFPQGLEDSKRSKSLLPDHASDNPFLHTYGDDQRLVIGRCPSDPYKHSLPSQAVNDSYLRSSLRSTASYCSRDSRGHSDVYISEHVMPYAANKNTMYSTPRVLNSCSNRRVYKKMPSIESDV", "test": "Whole-cell current recording, NMDA receptor GluN1a/2A", "assay_type": "cell-based", "source_text": "as §1, §2, §3"}, "[6]": {"target": "T5, GluA2Qflip (Rattus norvegicus, UniProt P19491)", "T5 construct": "expressed in transfected cells; host or cells: HEK-293S", "T5 sequence (P19491 22-883 isoform P19491-2)": "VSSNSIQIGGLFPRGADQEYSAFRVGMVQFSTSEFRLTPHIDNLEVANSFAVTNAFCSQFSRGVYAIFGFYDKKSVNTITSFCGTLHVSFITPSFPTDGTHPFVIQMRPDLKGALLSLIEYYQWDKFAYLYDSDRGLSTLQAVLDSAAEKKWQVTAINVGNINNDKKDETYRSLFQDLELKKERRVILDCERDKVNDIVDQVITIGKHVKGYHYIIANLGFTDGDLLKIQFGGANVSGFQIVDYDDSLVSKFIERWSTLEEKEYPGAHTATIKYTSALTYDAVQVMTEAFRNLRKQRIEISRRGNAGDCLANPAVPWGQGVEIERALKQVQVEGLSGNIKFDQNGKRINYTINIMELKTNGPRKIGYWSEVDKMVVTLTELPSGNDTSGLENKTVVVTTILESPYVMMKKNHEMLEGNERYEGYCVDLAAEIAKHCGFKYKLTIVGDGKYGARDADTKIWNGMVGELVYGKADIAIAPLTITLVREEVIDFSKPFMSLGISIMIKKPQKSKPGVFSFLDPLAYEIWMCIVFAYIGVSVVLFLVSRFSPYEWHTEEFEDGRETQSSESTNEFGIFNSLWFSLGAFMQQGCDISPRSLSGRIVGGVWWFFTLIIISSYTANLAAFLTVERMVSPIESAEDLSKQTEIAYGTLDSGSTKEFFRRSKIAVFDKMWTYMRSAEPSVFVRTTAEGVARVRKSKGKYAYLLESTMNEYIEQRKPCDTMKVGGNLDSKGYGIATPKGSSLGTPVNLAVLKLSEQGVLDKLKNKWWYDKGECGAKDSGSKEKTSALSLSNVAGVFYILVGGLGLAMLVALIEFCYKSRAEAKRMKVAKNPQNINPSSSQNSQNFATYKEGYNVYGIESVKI", "test": "Homologous competitive binding assay (32P-labeled aptamer, membrane-bound receptor)", "method": "Whether AG56 bound to the close-channel state or conformation, and if so, the affinity of binding were assayed by homologous competitive binding assay using ^32P-label^4. To do this, RNA was first dephosphorylated by using calf intestinal phosphatase (CIP), prior to the 5′-end ^32P-labeling^5. Labeled RNA was passed through a NucAway spin column (Applied Biosystem) to remove excess γ-^32P-ATP. Then, 1 μl of 10 nM of ^32P-labeled aptamer was mixed with 2 μg of yeast tRNA (Sigma) and a series of concentrations of unlabeled (cold) aptamer whose concentrations varied from 0-400 nM in the final reaction mix. The mixed aptamer sample was incubated first at 70° C. for 10 min and then at room temperature for 20 min, before mixed with the receptor. For receptor preparation, […] of the membrane-bound receptor was resuspended in 1× extracellular buffer with and without 1 mM of kainate (which corresponded to the open-channel state and the closed-channel state, respectively; for the latter, it corresponded to precisely the unliganded, closed-channel state). The final concentration for the receptor and for the hot aptamer, after mixing, was 0.4 nM and 0.1 nM, respectively. The mixture was incubated at 22° C. for 1 hour for binding. […] The radioactivity on the filter was quantified in a scintillation counter (Beckman LS6500). […]"}},
  "data": [
    {"substance": "AG56: 56-nucleotide truncated version of AG1407, RNA aptamer (GGGAGAUUGUGAAGCGUAGGCUCGAGUUUGUCCCGCGAGCCAAAGAUUCCAGACCC; RNA, backbone not given here)", "values": [
      {"measurement": "inhibition of the closed-channel conformation", "setting": "[1]", "value": "no inhibitory effect"},
      {"measurement": "inhibition of the open-channel conformation", "setting": "[1]", "value": "similarly inhibited the open-channel conformation"},
      {"measurement": "A/A(I)", "setting": "[2]; 0.5 μM AG56, 3 mM glutamate, open-channel GluA4", "value": "not significantly larger than 1.0"},
      {"measurement": "A/A(I) ratio", "setting": "[2]; 1 μM AG56, 3 mM glutamate, open-channel GluA4", "value": 1.2},
      {"measurement": "inhibition of the closed-channel conformation", "setting": "[2]; GluA4", "value": "no inhibitory effect"},
      {"measurement": "inhibition of the open-channel conformation", "setting": "[2]; GluA4", "value": "weak"},
      {"measurement": "effect on kainate receptor channel", "setting": "[3]", "value": "did not affect"},
      {"measurement": "effect on kainate receptor channel", "setting": "[4]", "value": "did not affect"},
      {"measurement": "effect on NMDA receptor channel", "setting": "[5]", "value": "did not affect"},
      {"measurement": "Kd", "setting": "[6]; open-channel conformation (1 mM kainate)", "value": "80 ± 23", "unit": "nM"},
      {"measurement": "Kd", "setting": "[6]; unliganded, closed-channel conformation (without kainate)", "value": "68 ± 40", "unit": "nM"}
    ]}
  ]
}
